One data set concerns respiratory rate. The experiment in a line: Induced morphine overdose and rescue with nalmefene in anesthetized porcine animal model. It is filed as in vivo. The text has this: The following examples provides data collected from an opioid overdose rescue device during overdose and rescue animal studies. The opioid overdose rescue device included a substrate having a PPG sensor, accelerometer and microcontroller disposed thereon, which was coupled to a substrate having a radio, chip antenna, power management components, and magnet sensor (so the device could be turned on and off without direct contact) disposed thereon.
FIGS. 6A and 6B show an example PPG sensor recording from the intestines in an anesthetized porcine animal model during an overdose and recovery study. The PPG sensor was endoscopically placed into the small intestine and anchored to intestinal tissue with 2 endoclips—one on each side of the device.
Baseline data was collected for 8 minutes. Then 60 mg of IV morphine was administered over 3 minutes (20 mg each minute for 3 minutes). The respiratory rate as measured by the lab vitals monitoring equipment decreased eventually to zero, indicated respiratory failure. One minute after respiratory failure, 50 mg nalmefene in solution was administered endoscopically directly into the intestines. Within 4 minutes of nalmefene delivery breathing recovered and eventually returned to pre-overdose levels. […] In certain aspects, a method of mitigating the effects of an opioid overdose could involve determining when a measured respiratory rate drops below a threshold (e.g. 8 breaths per minute) for a duration of time (e.g. 30 seconds) and commanding release of a rescue medication.
In a different study than referenced in FIG. 7, the device was endoscopically placed and anchored in the animal's intestine in a similar manner. […] As with the PPG data, a measured respiratory rate obtained from the motion sensing (i.e. accelerometer) data in the intestine could be used to detect an opioid overdose and trigger delivery of a rescue medication.

The subject of data set [1] is opiate receptors—μ, κ and δ. The settings on record: cited from earlier work.
For data set [2] the following is noted: cited from earlier work.

Take `CN1CC[C@]23c4c5ccc(O)c4O[C@H]2[C@@H](O)C=C[C@H]3[C@H]1C5` [morphine]: the “respiratory rate after morphine (lab vitals monitor)” value in the data set with respiratory rate (60 mg IV morphine over 3 minutes, zero indicates respiratory failure) is reported as “zero”.

Consider `C=C1CC[C@@]2(O)[C@H]3Cc4ccc(O)c5c4[C@@]2(CCN3CC2CC2)[C@H]1O5` [nalmefene], for which the “time after nalmefene delivery until breathing recovered” value in the data set with respiratory rate (PPG sensor study (FIG. 7), 50 mg nalmefene in solution endoscopically into the intestines, one minute after respiratory failure from 60 mg IV morphine) is at most 4 min. Further, in the data set on respiratory rate (accelerometer study (FIG. 8), 50 mg nalmefene in solution endoscopically delivered after respiratory failure from 60 mg IV morphine), the “time after nalmefene delivery until respiratory rate restored to normal levels” value is 14 min. Further, in data set [1], the “antagonist activity at opiate receptor types” value is recorded as “antagonist activity against all three types of opiate receptors”. For the same molecule, the oral bioavailability in data set [2] is 41%.

These data come from patent publication US12053606B2, “Opioid overdose rescue device” (Celero Systems, Inc., priority 2019, dated 2024).
